In brackets after ≈: the same amount, converted by molar mass. A value given as a limit tells only on which side of the number the result lay.

For test [1], the target named is S. aureus topoisomerase IV (Staphylococcus aureus, UniProt P0C1S7). As to the kind of experiment: Topoisomerase IV inhibition assay (Inspiralis, streptavidin-coated plates). In kind it is biochemical. As to conditions: read-out: IC50 DNA topoisomerase IV from S. aureus. The method, then:
Inhibitory activities for compounds of the present invention were determined on E. coli and S. aureus DNA gyrase and topoisomerase IV in an assay from Inspiralis on streptavidin-coated 96-well microtiter plates from Thermo scientific Pierce. First, the plates were rehydrated with buffer (20 mM Tris-HCl with pH 7.6, 0.01% w/v BSA, 0.05% v/v Tween 20, 137 mM NaCl) and the biotinylated oligonucleotide was then immobilized. After washing off the unbound oligonucleotide, the enzyme test was performed. […] Reaction solutions were incubated at 37° C. for 30 min. After that, the TF buffer (50 mM NaOAc with pH 5.0, 50 mM NaCl and 50 mM MgCl2) was added to terminate the enzymatic reaction. After additional incubation for 30 min at rt, during which biotin-oligonucleotide-plasmid triplex was formed, the unbound plasmid was washed off using TF buffer and SybrGOLD in T10 buffer (10 mM Tris HCl with pH 8.0 and 1 mM EDTA) was added. The fluorescence was measured with a microplate reader (BioTek Synergy H4, excitation: 485 nm, emission: 535 nm). […]. GraphPad Prism 6.0 software was used to calculate the IC50 values. The result is given as the average value of three independent measurements. […]. Chemoth. 66, 2061-2096 (2011))) for E. coli and S. aureus topoisomerase IV) was used.

Another test has as its target S. aureus DNA gyrase (Staphylococcus aureus, UniProt P0A0K8). The test can be described thus: biochemical. As to conditions: read-out: IC50 DNA gyrase from S. aureus. The method, then: (§1) Inhibitory activities for compounds of the present invention were determined on E. coli and S. aureus DNA gyrase and topoisomerase IV in an assay from Inspiralis on streptavidin-coated 96-well microtiter plates from Thermo scientific Pierce. […] After washing off the unbound oligonucleotide, the enzyme test was performed. […] Reaction solutions were incubated at 37° C. for 30 min. After that, the TF buffer (50 mM NaOAc with pH 5.0, 50 mM NaCl and 50 mM MgCl2) was added to terminate the enzymatic reaction. After additional incubation for 30 min at rt, during which biotin-oligonucleotide-plasmid triplex was formed, the unbound plasmid was washed off using TF buffer and SybrGOLD in T10 buffer (10 mM Tris HCl with pH 8.0 and 1 mM EDTA) was added. […] GraphPad Prism 6.0 software was used to calculate the IC50 values. The result is given as the average value of three independent measurements. […] Chemoth.

A further test concerns E. faecalis ATCC 29212. The test can be described thus: Microbroth dilution MIC (CLSI). As to conditions: Enterococcus faecalis, ATCC29212, read-out: MIC (μg/mL) E. faecalis ATCC 29212.
The next test relates to E. coli ATCC 25922. As to the kind of experiment: Microbroth dilution MIC (CLSI). As to conditions: Escherichia coli, ATCC25922, read-out: MIC (μg/mL) E. coli ATCC 25922.
The target in a further test is E. coli topoisomerase IV (Escherichia coli (strain K12), UniProt P20083). As to the kind of experiment: Topoisomerase IV inhibition assay (Inspiralis, streptavidin-coated plates). Type of test: biochemical. The method, then:
Inhibitory activities for compounds of the present invention were determined on E. coli and S. aureus DNA gyrase and topoisomerase IV in an assay from Inspiralis on streptavidin-coated 96-well microtiter plates from Thermo scientific Pierce. […] After washing off the unbound oligonucleotide, the enzyme test was performed. […] Reaction solutions were incubated at 37° C. for 30 min. After that, the TF buffer (50 mM NaOAc with pH 5.0, 50 mM NaCl and 50 mM MgCl2) was added to terminate the enzymatic reaction. After additional incubation for 30 min at rt, during which biotin-oligonucleotide-plasmid triplex was formed, the unbound plasmid was washed off using TF buffer and SybrGOLD in T10 buffer (10 mM Tris HCl with pH 8.0 and 1 mM EDTA) was added. […] Initial screening was done at 100 or 10 nM concentration of inhibitors against E. coli DNA gyrase or 1 μM or 100 nM concentration against S. aureus DNA gyrase and E. coli and S. aureus topo IV. […] GraphPad Prism 6.0 software was used to calculate the IC50 values. The result is given as the average value of three independent measurements. […] Chemoth.

The target of another test is E. coli DNA gyrase (Escherichia coli (strain K12), UniProt P0AES6). The test can be described thus: DNA gyrase inhibition assay (Inspiralis, streptavidin-coated plates). In kind it is biochemical. The method, then: as §1
Another test deals with S. aureus ATCC 29213. As to the kind of experiment: Microbroth dilution MIC (CLSI). As to conditions: Staphylococcus aureus, ATCC29213, read-out: MIC (μg/mL) S. aureus ATCC 29213.
Another test relates to E. faecium ATCC 35667. The test can be described thus: Microbroth dilution MIC (CLSI). The conditions noted are these: Enterococcus faecium, ATCC35667, read-out: MIC (μg/mL) E. faecium ATCC 35667.

Chain of E. coli topoisomerase IV (P20083 whole entry, looked up): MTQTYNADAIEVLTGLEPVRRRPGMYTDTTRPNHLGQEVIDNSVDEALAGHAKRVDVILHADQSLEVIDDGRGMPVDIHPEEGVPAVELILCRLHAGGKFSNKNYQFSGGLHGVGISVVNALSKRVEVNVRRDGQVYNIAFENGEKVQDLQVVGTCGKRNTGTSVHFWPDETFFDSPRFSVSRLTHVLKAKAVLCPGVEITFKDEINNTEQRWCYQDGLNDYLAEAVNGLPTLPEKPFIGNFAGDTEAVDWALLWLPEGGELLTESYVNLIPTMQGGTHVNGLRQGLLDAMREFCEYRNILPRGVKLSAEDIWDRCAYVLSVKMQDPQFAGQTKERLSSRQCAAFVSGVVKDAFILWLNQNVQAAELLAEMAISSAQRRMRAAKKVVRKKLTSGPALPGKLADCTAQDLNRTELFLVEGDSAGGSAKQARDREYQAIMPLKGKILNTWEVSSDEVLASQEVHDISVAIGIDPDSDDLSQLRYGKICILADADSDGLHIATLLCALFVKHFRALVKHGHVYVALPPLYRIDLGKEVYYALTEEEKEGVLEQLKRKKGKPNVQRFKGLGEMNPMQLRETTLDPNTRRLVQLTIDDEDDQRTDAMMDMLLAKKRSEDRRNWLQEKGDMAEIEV
Chain of E. coli topoisomerase IV (P0AFI2 whole entry partner, looked up): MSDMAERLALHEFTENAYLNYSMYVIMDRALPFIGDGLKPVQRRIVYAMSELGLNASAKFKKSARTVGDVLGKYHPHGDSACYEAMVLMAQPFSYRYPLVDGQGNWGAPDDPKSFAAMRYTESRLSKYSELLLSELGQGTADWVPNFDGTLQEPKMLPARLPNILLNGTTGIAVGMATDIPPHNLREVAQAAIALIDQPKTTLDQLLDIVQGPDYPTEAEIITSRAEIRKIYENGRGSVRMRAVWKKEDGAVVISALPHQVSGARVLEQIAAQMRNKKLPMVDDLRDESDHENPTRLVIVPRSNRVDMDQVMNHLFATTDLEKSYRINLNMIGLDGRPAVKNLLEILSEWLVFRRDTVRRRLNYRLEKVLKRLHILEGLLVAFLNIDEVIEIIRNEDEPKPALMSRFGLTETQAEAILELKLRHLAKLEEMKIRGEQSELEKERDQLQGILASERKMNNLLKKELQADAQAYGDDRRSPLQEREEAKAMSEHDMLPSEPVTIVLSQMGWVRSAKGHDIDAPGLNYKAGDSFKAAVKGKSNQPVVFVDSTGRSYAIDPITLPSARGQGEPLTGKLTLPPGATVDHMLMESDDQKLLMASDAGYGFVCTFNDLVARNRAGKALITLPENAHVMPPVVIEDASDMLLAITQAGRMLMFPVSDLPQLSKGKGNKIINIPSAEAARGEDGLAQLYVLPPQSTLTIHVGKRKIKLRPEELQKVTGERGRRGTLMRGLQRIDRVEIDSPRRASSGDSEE

Turning to `Cc1[nH]c(C(=O)Nc2nc3c(OCc4cccs4)cc(C(=O)O)cc3s2)c(Cl)c1Cl` [Example 32, 2-(3,4-dichloro-5-methyl-1H-pyrrole-2-carboxamido)-4-(thiophen-2-ylmethoxy)benzo[d]thiazole-6-carboxylic acid], the half-maximal inhibitory concentration (IC50) in test [1] was below 400 nM; at S. aureus DNA gyrase, below 20 nM; at E. coli topoisomerase IV it was below 400 nM; against E. coli DNA gyrase it was below 5 nM. The MIC is 0.0163 µg/mL (≈ 0.0337 µM) with E. faecalis ATCC 29212, 8 µg/mL (≈ 16.6 µM) with E. coli ATCC 25922 and 0.065 µg/mL (≈ 0.135 µM) in the test on S. aureus ATCC 29213.

On to `Cc1[nH]c(C(=O)Nc2nc3c(OCc4ccsc4)cc(C(=O)O)cc3s2)c(Cl)c1Cl` [Example 31, 2-(3,4-dichloro-5-methyl-1H-pyrrole-2-carboxamido)-4-(thiophen-3-ylmethoxy)benzo[d]thiazole-6-carboxylic acid], for which the IC50 in test [1] was below 400 nM; at S. aureus DNA gyrase, below 20 nM; against E. coli topoisomerase IV, below 400 nM; on E. coli DNA gyrase it was below 5 nM. Also, the MIC was 0.0156 µg/mL (≈ 0.0323 µM) in the test with E. faecalis ATCC 29212, 4 µg/mL (≈ 8.29 µM) in the test with E. coli ATCC 25922 and 0.25 µg/mL (≈ 0.518 µM) with S. aureus ATCC 29213.

`Cc1[nH]c(C(=O)Nc2nc3c(OCc4ccc(C(=O)O)cc4)cc(C(=O)O)cc3s2)c(Cl)c1Cl` [Example 12, 4-((4-carboxybenzyl)oxy)-2-(3,4-dichloro-5-methyl-1H-pyrrole-2-carboxamido)benzo[d]thiazole-6-carboxylic acid]: the MIC with E. faecium ATCC 35667, with E. faecalis ATCC 29212, with E. coli ATCC 25922 and in the test on S. aureus ATCC 29213 was above 64 µg/mL in each case. The IC50 in test [1] was below 400 nM; at S. aureus DNA gyrase, below 20 nM; on E. coli topoisomerase IV it was below 400 nM; on E. coli DNA gyrase, below 5 nM.

Turning to `Cc1[nH]c(C(=O)Nc2nc3ccc(C(=O)NCC(=O)O)cc3s2)c(Cl)c1Cl` [Example 23, (2-(3,4-dichloro-5-methyl-1H-pyrrole-2-carboxamido)benzo[d]thiazole-6-carbonyl)glycine], the IC50 in test [1] was below 400 nM; at S. aureus DNA gyrase, below 20 nM; at E. coli topoisomerase IV, below 400 nM; against E. coli DNA gyrase, 7.1 ± 3.2 nM. For the same compound, the MIC in the test on E. faecalis ATCC 29212 is 16 µg/mL (≈ 37.4 µM); in the test on E. coli ATCC 25922 it was above 64 µg/mL; with S. aureus ATCC 29213 it was 64 µg/mL (≈ 150 µM).

Consider `Cc1[nH]c(C(=O)Nc2nc3c(OCCN4CCOCC4)cc(C(=O)O)cc3s2)c(Cl)c1Cl.Cl` [Example 10, 4-(2-((6-carboxy-2-(3,4-dichloro-5-methyl-1H-pyrrole-2-carboxamido)benzo[d]thiazol-4-yl)oxy)ethyl)morpholin-4-ium chloride], for which the MIC was 40.2 µg/mL in the test with E. faecium ATCC 35667, 8 µg/mL in the test with E. faecalis ATCC 29212, above 64 µg/mL in the test on E. coli ATCC 25922 and above 64 µg/mL with S. aureus ATCC 29213. The IC50 in test [1] was below 400 nM; at S. aureus DNA gyrase it was below 20 nM; on E. coli topoisomerase IV it was below 400 nM; at E. coli DNA gyrase, below 5 nM.

Consider `Cc1[nH]c(C(=O)Nc2nc3c(-c4ccccc4)cc(C(=O)O)cc3s2)c(Cl)c1Cl` [Example 44, 2-(3,4-dichloro-5-methyl-1H-pyrrole-2-carboxamido)-4-phenylbenzo[d]thiazole-6-carboxylic acid], for which the half-inhibitory concentration (IC50) in test [1] was below 400 nM; at S. aureus DNA gyrase it was below 20 nM; at E. coli topoisomerase IV, below 400 nM; at E. coli DNA gyrase it was below 5 nM. The MIC in the test on E. faecalis ATCC 29212 was 0.023 µg/mL (≈ 0.0515 µM); with E. coli ATCC 25922 it was above 64 µg/mL; in the test on S. aureus ATCC 29213, 0.0312 µg/mL (≈ 0.07 µM).

Regarding `Cc1[nH]c(C(=O)Nc2nc3c(OCc4cccc(C(=O)O)c4)cc(C(=O)O)cc3s2)c(Cl)c1Cl` [Example 24, 4-((3-carboxybenzyl)oxy)-2-(3,4-dichloro-5-methyl-1H-pyrrole-2-carboxamido)benzo[d]thiazole-6-carboxylic acid], the IC50 in test [1] was below 400 nM; on S. aureus DNA gyrase it was below 20 nM; at E. coli topoisomerase IV, below 400 nM; on E. coli DNA gyrase it was below 5 nM. Besides, the MIC in the test with E. faecalis ATCC 29212 is 1.5 µg/mL (≈ 2.88 µM); in the test with E. coli ATCC 25922 it was above 64 µg/mL; with S. aureus ATCC 29213, above 64 µg/mL.

Take `COc1cc(C(=O)O)cc2sc(NC(=O)c3[nH]c(C)c(Cl)c3Cl)nc12` [Example 8, 2-(3,4-dichloro-5-methyl-1H-pyrrole-2-carboxamido)-4-methoxybenzo[d]thiazole-6-carboxylic acid]: the MIC was determined as 1.25 µg/mL (≈ 3.12 µM) with E. faecium ATCC 35667, 0.25 µg/mL (≈ 0.625 µM) in the test with E. faecalis ATCC 29212, 64 µg/mL (≈ 160 µM) with E. coli ATCC 25922 and 2 µg/mL (≈ 5 µM) in the test on S. aureus ATCC 29213. Moreover, on E. coli DNA gyrase, inhibition was half-maximal at 7.6 ± 3.4 nM (IC50).

For `Cc1[nH]c(C(=O)Nc2nc3c(OCc4cccc(F)c4)cc(C(=O)O)cc3s2)c(Cl)c1Cl` [Example 30, 2-(3,4-dichloro-5-methyl-1H-pyrrole-2-carboxamido)-4-((3-fluorobenzyl)oxy)benzo[d]thiazole-6-carboxylic acid], the figures for the IC50 (in test [1]; on S. aureus DNA gyrase) were below 400 nM and below 20 nM, respectively. Moreover, the MIC in the test on E. faecalis ATCC 29212 is 0.001 µg/mL (≈ 0.00202 µM); in the test with E. coli ATCC 25922, above 64 µg/mL; in the test on S. aureus ATCC 29213 it was 0.0625 µg/mL (≈ 0.126 µM).

As for `Cc1[nH]c(C(=O)Nc2nc3cc(O)c(C(=O)O)cc3s2)c(Cl)c1Cl` [Example 13, 2-(3,4-dichloro-5-methyl-1H-pyrrole-2-carboxamido)-5-hydroxybenzo[d]thiazole-6-carboxylic acid], the MIC is 1.21 µg/mL (≈ 3.13 µM) with E. faecium ATCC 35667, 1 µg/mL (≈ 2.59 µM) with E. faecalis ATCC 29212, above 64 µg/mL in the test on E. coli ATCC 25922 and 16 µg/mL (≈ 41.4 µM) in the test with S. aureus ATCC 29213. At E. coli DNA gyrase, this compound registered an IC50 below 5 nM.

Consider `Cc1[nH]c(C(=O)Nc2nc3c(N4CCCC4)cc(C(=O)O)cc3s2)c(Cl)c1Cl` [Example 37, 2-(3,4-dichloro-5-methyl-1H-pyrrole-2-carboxamido)-4-(pyrrolidin-1-yl)benzo[d]thiazole-6-carboxylic acid], for which the IC50 in test [1] was below 400 nM; on S. aureus DNA gyrase, below 20 nM; against E. coli topoisomerase IV, below 400 nM; on E. coli DNA gyrase, below 5 nM. The MIC turned out to be 0.125 µg/mL (≈ 0.285 µM) in the test on E. faecalis ATCC 29212, 16 µg/mL (≈ 36.4 µM) with E. coli ATCC 25922 and 0.25 µg/mL (≈ 0.569 µM) with S. aureus ATCC 29213.

As for `Cc1[nH]c(C(=O)Nc2nc3c(OCCN)cc(C(=O)O)cc3s2)c(Cl)c1Cl.Cl` [Example 11, 2-((6-carboxy-2-(3,4-dichloro-5-methyl-1H-pyrrole-2-carboxamido)benzo[d]thiazol-4-yl)oxy)ethan-1-aminium chloride], the MIC in the test with E. faecium ATCC 35667, in the test with E. faecalis ATCC 29212, in the test with E. coli ATCC 25922 and in the test with S. aureus ATCC 29213 was above 64 µg/mL each time. In addition, on E. coli DNA gyrase, the IC50 is below 5 nM.

As for `Cc1[nH]c(C(=O)Nc2nc3ccc(C(=O)NCCC(=O)O)cc3s2)c(Cl)c1Cl` [Example 22, 3-(2-(3,4-dichloro-5-methyl-1H-pyrrole-2-carboxamido)benzo[d]thiazole-6-carboxamido)propanoic acid], the MIC in the test on E. faecium ATCC 35667 is 5.52 µg/mL (≈ 12.5 µM); with E. faecalis ATCC 29212, 2 µg/mL (≈ 4.53 µM); with E. coli ATCC 25922, above 64 µg/mL; in the test on S. aureus ATCC 29213, 32 µg/mL (≈ 72.5 µM). Half-maximal inhibition at E. coli DNA gyrase (IC50) was put at 7 ± 0.9 nM.

Source of the values: US12258342B2, “Class of DNA gyrase and/or topoisomerase IV inhibitors with activity against gram-positive and gram-negative bacteria” (Univerza v Ljubljani, priority 2018, dated 2025).
